Columns and labels:
[1] = target: T1, Acyl-CoA: Cholesterol Acyltransferase (ACAT) (Rattus norvegicus, UniProt Q7TQM4); test: Inhibition of Acyl-CoA: Cholesterol Acyltransferase (ACAT) in hepatic microsomes (In Vitro Assay); assay type: biochemical, rat (male Sprague Dawley); details: 75 μM 14C-oleoyl-CoA, pH 7.4, 37° C., 15 min preincubation, 10 min
T1 construct: Microsomes were obtained by differential centrifugation; from tissue; host or cells: liver microsomes of male Sprague Dawley rats
T1 sequence (Q7TQM4 1-524): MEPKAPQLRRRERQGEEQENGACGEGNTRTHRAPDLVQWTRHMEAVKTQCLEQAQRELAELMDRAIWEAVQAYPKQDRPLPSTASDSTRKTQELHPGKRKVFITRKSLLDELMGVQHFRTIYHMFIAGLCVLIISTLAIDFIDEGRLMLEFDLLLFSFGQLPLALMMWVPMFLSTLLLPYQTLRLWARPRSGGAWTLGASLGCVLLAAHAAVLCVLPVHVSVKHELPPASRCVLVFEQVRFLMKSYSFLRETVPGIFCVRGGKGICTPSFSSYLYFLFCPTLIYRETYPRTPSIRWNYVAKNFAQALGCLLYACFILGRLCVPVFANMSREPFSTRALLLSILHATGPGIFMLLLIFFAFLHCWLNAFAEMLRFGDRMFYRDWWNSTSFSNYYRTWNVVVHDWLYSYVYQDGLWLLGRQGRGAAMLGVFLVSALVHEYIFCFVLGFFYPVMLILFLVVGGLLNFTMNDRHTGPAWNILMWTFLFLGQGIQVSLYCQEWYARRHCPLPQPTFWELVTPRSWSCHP
Method: A. Assay of the Inhibition of Acyl-CoA: Cholesterol Acyltransferase (ACAT) in Hepatic Microsomes (In Vitro Assay)
The ability of the compounds to inhibit ACAT, the enzyme responsible for the intracellular synthesis of cholesteryl esters, was tested as follows. Male Sprague Dawley rats weighing 150-300 g, were fed rat chow ad libitum. The animals were fasted for twenty-four hours prior to being euthanized by CO2. The livers were perfused in situ with 50 ml of cold 0.25 sucrose, excised, and homogenized in three volumes of 0.1M phosphate buffer, pH 7.4, that contained 0.5 mM EDTA (ethylenediamine-tetraacetic acid), 1.0 mM glutathione, 0.25M sucrose and 20 mM leupeptin. Microsomes were obtained by differential centrifugation; the supernatant from an initial spin at 15,000× g for 15 minutes was centrifuged at 105,000× g for 1 hour to pellet the microsomes. The microsomes were suspended in 0.1M phosphate buffer, pH 7.4 with 1 mM GSH and stored at -70° C. Microsomes were used within one month of preparation.
The control assay in a final volume of 200 μl consisted of 200 μg of microsomal protein, 75 μM ^14 C-oleoyl-CoA (10,000 dpm/nmol) in 0.1M phosphate, pH 7.4, that contained 1 mM glutathione. Compounds were added in 5 μl of DMSO (dimethyl sulfoxide) and additional controls were run with DMSO only. All components, except the oleoyl-CoA, were preincubated for 15 min. at 37° C. prior to the initiation of the reaction by the addition of oleoyl-CoA. The assay was terminated after 10 min by the addition of 4 ml of chloroform:methanol (2:1, v/v). 20,000 dpm of ^3 H-cholesteryl oleate and 10 μg of unlabeled cholesteryl oleate and oleic acid were added as an internal standard and carriers, respectively. After allowing 10 min. for lipid extraction, the samples were centrifuged at 1,000× g for 10 min to separate the solvent layers. The chloroform layer containing the neutral lipids was spotted onto a Baker SI250-Pa silica gel TLC plate and the plate developed using a hexane:diethyl ether:acetic acid (170:30:1) v/v/v) mobile phase. The lipids were visualized by their interaction with iodine vapor and the cholesteryl ester spot was scraped into a scintillation vial and counted. The specific activity of ACAT in the control incubation averaged 260 pmol/min/mg microsomal protein. The data obtained are expressed as the concentration at which ACAT activity is inhibited by 50% (IC50).

ACAT = test: Systemic availability of ACAT inhibitors (Ex Vivo Assay): ACAT activity in livers from orally dosed rats; design: species or system rat (male (CD) Sprague Dawley); details: rat, oral gavage 10 mg/kg, days 1-3, livers taken 3 h after last dose
Method: B. Assay for the Systemic Availability of ACAT Inhibitors (Ex Vivo Assay)
The inhibition of ACAT activity in livers obtained from rats orally dosed with an inhibitor was used as a determination of the compound's systemic availability. The ability of ACAT inhibitors to affect cholesterol esterification in livers obtained from dosed animals was tested as follows. This assay is also referred to herein as the Ex Vivo Assay. Male (CD) Sprague Dawley rats weighing from 190-210 g were fed purina lab chow ad libitum. Rats, three per group, were orally gavaged with 10 mg/kg of active ACAT inhibitor. The compounds were dissolved in ethanol (10% of final volume); a PEG solution (80 propylene glycol:20 polyethylene glycol 400, w:w) was added and the compound was mixed completely prior to dosing. A control group received the dosing vehicle alone. The animals were dosed once on Day 1 (am), twice on Day 2 (am and pm) and once on the morning of Day 3. Three hours after the last dose animals were euthanized using CO2. Livers were perfused with a 0.25M sucrose solution, excised, and frozen. Livers were thawed and resuspended in buffer (2 mL/g, 0.1M Phosphate, pH 7.4, 1.0 mM glutathione, 0.5 mM EDTA, 20 μM leupeptin, 60 μM benzamidine, and 0.25M sucrose). The samples were homogenized and post nuclear microsomes were obtained by centrifugation: 1.000× g for 5 min. and the resulting supernatant, 100,000× g for 1 hr. Microsomes were resuspended in phosphate buffer to approximately 25 mg/mL and frozen at -70° C. until assayed for ACAT activity.
ACAT assays contained in a final volume of 200 μl:100 ug microsomal protein, 75 μM ^14 C-oleoyl-CoA (10,000 dpm/nmol), 0.75 mg bovine serum albumin, 0.1M phosphate buffer, pH 7.4, and 1 mM glutathione. All components, except the oleoyl-CoA, were preincubated for 15 min at 37° C. prior to the initiation of the reaction by the addition of oleoyl-CoA. The assay was terminated after 10 min and ACAT activity determined as described in section A above. The average specific activity of ACAT in the vehicle control group was 661 +/- 64 pmol/min/mg (SEM). The data (% inhibition) are expressed as 100 minus the % ACAT activity in livers from dosed animals versus those from a vehicle control group.

Row | IC50 [1] | Molecule | Inhibition of ACAT, Ex Vivo Assay (% inhibition) (ACAT; given as number) | Inhibition of ACAT, Ex Vivo Assay (% inhibition) (ACAT; class symbols)
1 | < 2 µM | CCCCCCC1=C(CCCCCC)CC(C(=O)Nc2c(C)cccc2C)SC1 (stereo not drawn) [Example 2] | – | –
2 | 3 to 10 µM | CSc1cc(C)nc(SC)c1NC(=O)C1SCC=CC1OC(C)=O (stereo not drawn) [Example 168] | – | –
3 | < 2 µM | CCCCCC1=C(CCCCC)CC(C(=O)Nc2c(C(C)C)cccc2C(C)C)SC1 (stereo not drawn) [Example 27, N-(2,6-diisopropylphenyl)-3,6-dihydro-4,5-dipentyl-2H-thiopyran-2-carboxamide] | – | –
4 | < 2 µM | CCCCCC1C=CC(CCCCC)[S+]([O-])C1C(=O)Nc1c(SC)cc(C)nc1SC (stereo not drawn) [Example 120] | – | –
5 | < 2 µM | CCCCC1=C(CCCC)CC(C(=O)Nc2c(C)cccc2C)SC1 (stereo not drawn) [Example 41] | – | –
6 | 3 to 10 µM | CCCCCC1=C(CCCCC)CC(C(=O)Nc2cncnc2SC)SC1 (stereo not drawn) [Example 32] | – | –
7 | < 2 µM | CCCCCC1C=CC(CCCCC)C(C(=O)Nc2c(Cl)cccc2Cl)S1 (stereo not drawn) [Example 68] | – | –
8 | < 2 µM | CCCCCC1=C(CCCCC)CC(C(=O)Nc2c(Cl)cccc2Cl)SC1 (stereo not drawn) [Example 29] | – | –
9 | 3 to 10 µM | CCCCCCC1=C(CCCCCC)CC(C(=O)Nc2c(Cl)cccc2Cl)SC1 (stereo not drawn) [Example 3] | – | –
10 | < 2 µM | CCCCCCSC1CC(=O)CC(C(=O)Nc2c(SC)cc(C)nc2SC)S1 (stereo not drawn) [Example 402, N-[2,4-bis(methylthio)-6-methylpyridin-3-yl]-6-hexylthio-2,3,5,6-tetrahydro-4H-thiopyran-4-one-2-carboxamide] | – | –
11 | 11 to 50 µM | CC1=C(C)CC(C(=O)Nc2c(C(C)C)cccc2C(C)C)OC1 (stereo not drawn) [Example 104] | – | –
12 | < 2 µM | CCCCCCC1=C(CCCCCC)CC(C(=O)Nc2c(C(C)C)cccc2C(C)C)SC1 (stereo not drawn) [Example 1] | – | –
13 | < 2 µM | CCCCCC1=C(CCCCC)CC(C(=O)Nc2c(SC)cc(C)nc2SC)SC1 (stereo not drawn) [Example 31] | < 10% | –
14 | < 2 µM | CCCCCC1C=CC(CCCCC)C(C(=O)Nc2c(C)cccc2C)S1 (stereo not drawn) [Example 67] | – | –
15 | 11 to 50 µM | N-[2,6-bis(1-methylethyl)phenyl]-6,7-dimethoxy-1,2,3,4-tetrahydro-2-thianaphthalene-1-carboxamide [Example 613] | – | –
16 | < 2 µM | CCCCC1=C(CCCC)CC(C(=O)Nc2c(C(C)C)cccc2C(C)C)SC1 (stereo not drawn) [Example 40] | – | –
17 | < 2 µM | CSc1cc(C)nc(SC)c1NC(=O)C1SC(CCCSC2CCCCC2)C=CC1CCCSC1CCCCC1 (stereo not drawn) [Example 184] | – | –
18 | < 2 µM | CCCCC1=C(CCCC)CC(C(=O)Nc2c(Cl)cccc2Cl)SC1 (stereo not drawn) [Example 42] | – | + (10-49%)

Row | IC50 [1] | Molecule | Inhibition of ACAT, Ex Vivo Assay (% inhibition) (ACAT; given as number) | Inhibition of ACAT, Ex Vivo Assay (% inhibition) (ACAT; class symbols)
19 | 3 to 10 µM | CCCCCC1C=CC(CCCCC)C(C(=O)Nc2ccc(F)cc2F)S1 (stereo not drawn) [Example 69] | – | –
20 | < 2 µM | CCCCCC1C=CC(CCCCC)C(C(=O)Nc2c(SC)cc(C)nc2SC)S1 (stereo not drawn) [Example 70, N-[2,4-bis(methylthio)-6-methylpyridin-3-yl]-3,6-dipentyl-2,3-dihydro-2H-thiopyran-2-carboxamide] | – | ++ (>50%)
21 | < 2 µM | CCCCCC1=CC(CCCCC)C(C(=O)Nc2c(C(C)C)cccc2C(C)C)SC1 (stereo not drawn) [Example 79] | – | –
22 | < 2 µM | CCCCCCCCC1=C(CCCCCCCC)CC(C(=O)Nc2c(SC)cc(C)nc2SC)SC1 (stereo not drawn) [Example 35] | – | –
23 | < 2 µM | CCCCCC1=C(CCCCC)CC(C(=O)Nc2c(C)cccc2C)SC1 (stereo not drawn) [Example 28] | – | –
24 | < 2 µM | CCCC1C=CC(CCC)C(C(=O)Nc2c(SC)cc(C)nc2SC)S1 (stereo not drawn) [Example 140] | < 10% | –
25 | 11 to 50 µM | CCCCCC1=C(CCCCC)CC(C(=O)Nc2cccnc2SC)SC1 (stereo not drawn) [Example 33] | – | –
26 | 11 to 50 µM | CCCCCC1=C(CCCCC)CC(C(=O)Nc2ccc(SC)nc2)SC1 (stereo not drawn) [Example 34] | – | –
27 | < 2 µM | CSc1cc(C)nc(SC)c1NC(=O)C1SC(c2ccccc2)C=CC1c1ccccc1 (stereo not drawn) [Example 132] | – | –
28 | 11 to 50 µM | CC(C)(C)C1C=CCC(C(=O)Nc2ccc(F)cc2F)S1 (stereo not drawn) [Example 17] | – | –
29 | 11 to 50 µM | CCCCCC1=C(CCCCC)CC(C(=O)Nc2ccc(F)cc2F)SC1 (stereo not drawn) [Example 30] | – | –
30 | < 2 µM | CSc1cc(C)nc(SC)c1NC(=O)C1CC(C)=C(C)CS1 (stereo not drawn) [Example 57] | – | –
31 | < 2 µM | CCCCCC1C=CC(CCCCC)C(C(=O)Nc2c(C(C)C)cccc2C(C)C)S1 (stereo not drawn) [Example 66, N-(2,6-diisopropylphenyl)-3,6-dihydro-3,6-dipentyl-2H-thiopyran-2-carboxamide] | – | ++ (>50%)
32 | < 2 µM | CSc1cc(C)nc(SC)c1NC(=O)C1SC(CCCCl)C=CC1CCCCl (stereo not drawn) [Example 180] | – | –
33 | < 2 µM | CCCCCC1=C(CCCCC)CC(C(=O)Nc2c(C)nn(C)c2SC)SC1 (stereo not drawn) [Example 39] | – | –
34 | 11 to 50 µM | CSc1cc(C)nc(SC)c1NC(=O)C1CC(C)=C(C)CO1 (stereo not drawn) [Example 106, N-[2,4-bis(methylthio)-6-methyl-3-pyridyl]-2,3-dihydro-4,5-dimethyl-2H-pyran-2-carboxamide] | – | –
35 | 3 to 10 µM | CC1=C(C)CC(C(=O)Nc2c(C(C)C)cccc2C(C)C)SC1 (stereo not drawn) [Example 53] | – | –

Row | Molecule | IC50 [1] | Inhibition of ACAT, Ex Vivo Assay (% inhibition) (ACAT; given as number) | Inhibition of ACAT, Ex Vivo Assay (% inhibition) (ACAT; class symbols)
36 | CCCCCOc1cc2c(cc1OC)CC(CCCC)CSC2C(=O)Nc1c(SC)cc(C)nc1SC (stereo not drawn) [Example 907, N-[2,4-bis(methylthio)-6-methylpyridin-3-yl]-4-butyl-7-methoxy-8-pentoxy-1,3,4,5-tetrahydro-2-benzothiepin-1-carboxamide] | < 2 µM | – | –
37 | CCCCO[C@H]1[C@@H](OC)O[C@H](C(=O)Nc2c(SC)cc(C)nc2SC)C(OCc2ccccc2)[C@@H]1OCCCC (stereo in doubt) [Example 426, (2S,3R,4S,5R,6S)-N-[2,4-bis(methylthio)-6-methylpyridin-3-yl]-3-benzyloxy-4,5-dibutoxy-6-methoxy-3,4,5,6-tetrahydro-2H-pyran-2-carboxamide] | 11 to 50 µM | – | –
